In publication PMC12598851, “Exploiting Avidity Effects for the Discovery of Low Affinity Protein-Binding Fragments” (Journal of Medicinal Chemistry, 2025):
Read-outs that look alike come from different tables or passages of the source. Non-standard residues stand in square brackets, D forms with d. Residues, ends and D or L forms follow the SMILES beside them.

Experiments:
[1] = target: T1, Rpn2-binding surface of Rpn13 (GST-Rpn13 PRU) (Homo sapiens, UniProt Q16186); assay: Competition assay with Rpn2 peptide for GST-Rpn13 PRU fusion protein; conditions: protein preincubated with Rpn2 peptide 100 μM
T1 construct: the human Rpn13 PRU (pleckstrin-like receptor for ubiquitin) domain is linked to the C-terminus of GST; His6 (C); made in house; host or cells: E. coli BL21 (DE3) codon plus RP
T1 sequence (Q16186 18-131 limits assumed): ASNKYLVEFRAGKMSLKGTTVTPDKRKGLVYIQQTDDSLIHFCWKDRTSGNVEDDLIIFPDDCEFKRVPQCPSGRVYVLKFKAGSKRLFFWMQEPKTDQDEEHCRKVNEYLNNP
Protocol: As mentioned above, the Rpn13 PRU domain binds to the proteasome via association with a C-terminal peptide tail from Rpn2. […] The amount of protein retained on the resin was then evaluated using the same protocol described above.
This assay was conducted following the exact same procedure described above using two samples: GST-Rpn13 PRU (100 nM) alone, and GST-Rpn13 PRU (100 nM) that had been pretreated with Rpn2 peptide (100 μM) for 1 h at 4 °C. Each sample was added to separate wells of a microtiter plate.

Rpn13 PRU = target: T2, Rpn13 PRU (Homo sapiens, UniProt Q16186); assay: SPR, soluble compound binding to biotinylated Rpn13 PRU captured on SA chip
T2 construct: FLAG (N); His10 (C); made in house; host or cells: E. coli BL21 (DE3) codon plus RP
T2 sequence (Q16186 18-131 limits assumed): as above
Protocol: 4000–5000 Ru of Biotinylated Rpn13-PRU (50 μg/mL in running buffer (20 mM phosphate buffer with 2.7 mM KCl, 137 mM NaCl, 0.05% Surfactant P20, 1 mM DTT and 1 mM EDTA)) was captured on a SA sensor chip (Cytiva). Testing compounds were evaluated using the multiple-cycle kinetic/affinity method in running buffer with indicated association and dissociation time, and a flow rate of 40 μL/min. Data was analyzed with the BIAcore Insight Evaluation Software and the binding affinities were obtained by fitting the sensor grams to the 1:1 binding kinetics, steady-state affinity models or steady-state affinity model with constant R max.

[2] = target: T3, GST-Rpn13 PRU fusion protein (UniProt P08515+Q16186); assay: Bead-displayed fragment screen against GST-Rpn13 PRU fusion protein; type: binding, human; conditions: GST-Rpn13 PRU 500 nM, A647 anti-FLAG antibody staining
T3 construct: the human Rpn13 PRU (pleckstrin-like receptor for ubiquitin) domain is linked to the C-terminus of GST; His6 (C); made in house; host or cells: E. coli BL21 (DE3) codon plus RP
T3 sequence (P08515+Q16186 fused): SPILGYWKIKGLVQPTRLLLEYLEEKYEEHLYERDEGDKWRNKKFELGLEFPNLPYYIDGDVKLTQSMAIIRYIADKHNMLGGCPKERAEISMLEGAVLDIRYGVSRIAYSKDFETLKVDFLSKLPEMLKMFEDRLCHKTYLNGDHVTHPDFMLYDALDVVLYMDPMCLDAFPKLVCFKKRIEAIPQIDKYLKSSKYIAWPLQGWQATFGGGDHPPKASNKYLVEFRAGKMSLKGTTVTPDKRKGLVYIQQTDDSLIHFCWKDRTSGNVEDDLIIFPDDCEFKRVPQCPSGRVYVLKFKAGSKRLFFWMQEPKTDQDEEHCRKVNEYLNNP
Protocol: The beads (one compound per well) were then incubated with GST-Rpn13 PRU fusion protein (500 nM) and, after washing, the amount of protein retained on the beads was measured after staining with Alexafluor-647 (A647)-labeled anti-FLAG antibody using a plate reader (Figure a). […] Next a competition experiment was performed in which the GST-Rpn13 PRU fusion protein was preincubated with excess glutathione (1 mM) to determine if the fragments, to some extent, engage the peptide-binding site of GST. […] We speculate that A8 and A88 probably bind to both GST and Rpn13, explaining the high signal in the original screen (Figure b). Finally, all five hit-displaying beads were incubated with only Alexa Fluor 647–labeled anti-FLAG antibody to confirm that the hits are not antibody binders (Figure S11).
General notes: • At each step, contents were mixed by pipetting up and down 3–5 times. • All steps following the addition of Alexa Fluor 647 anti-FLAG Tag Antibody were conducted in the dark. • Alexa Fluor 647 anti-FLAG Tag Antibody was purchased from commercial sources; (BioLengend cat #637316). […]
Each sample was transferred to a black 384-well plate in triplicate (3 × 20 μL per well). […] Fluorescence intensity was measured using a TECAN plate reader. Background fluorescence (from blank wells) was subtracted before further data analysis.

Rpn13 = conditions: peptide derived from Rpn2; cited from earlier work
SA [3] = conditions: in solution; cited from earlier work
SA [4] = assay: Affinity of macrocycle 1 for SA in solution; type: binding; conditions: KD in solution against KD of compound 2
SA-647 = target: T4, SA-647 (Streptomyces avidinii, UniProt P22629); assay: Dose-dependent binding of SA-647 to bead-displayed ligands by FACS (MFI); conditions: SA-647 0.1 to 1000 nM
T4 construct: purchased ThermoFisher S3235
T4 sequence (P22629 37-163 limits assumed): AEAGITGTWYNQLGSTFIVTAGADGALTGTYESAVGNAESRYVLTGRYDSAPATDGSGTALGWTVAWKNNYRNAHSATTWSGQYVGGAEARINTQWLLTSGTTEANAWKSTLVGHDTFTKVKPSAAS
Protocol: We next asked if the bead binding assay could distinguish complexes with different affinities for SA. 10 μm TentaGel beads displaying compound 2, compound 3, the oxazole analogue of compound 2 (Figure S4), or the SA-binding macrocycle 1 shown in Figure a were exposed to different concentrations of SA-647 ranging from 0.1 to 1000 nM. After washing, the intensity of fluorescence retained on the beads was measured using a flow cytometer, and the results were plotted as the mean fluorescence intensity (MFI) on the beads vs the protein concentration. […] Macrocycle 1, which binds SA with a K D of about 600 nM in solution (more than 1000 times more tightly than compound 2), binds SA-647 on resin at far lower concentrations than does compound 2.

NC(=O)CNC(=O)COCCOCCNC(=O)CNC(=O)c1ccc2nc(-c3ccncc3)[nH]c2c1 [A63]
effect of soluble Rpn2 peptide competitor on binding of GST-Rpn13 PRU [1]: strongly suppressed binding
KD (SPR) (Rpn13 PRU; soluble compound, biotinylated Rpn13 PRU immobilized on SA chip): A similar result
Kd (Rpn13 PRU; supplementary CSV, solution dissociation constants, read-out: KD for Rpn13 PRU): > 2000 µM
fluorescence intensity in GST-Rpn13 PRU screen [2]: above-background fluorescence

CC[C@H](C)[C@H](NC(=O)[C@H](Cc1ccc(O)cc1)NC(=O)[C@@H](CCC(=O)O)NC(=O)[C@H](Cc1ccccc1)NC(=O)[C@@H]1CCCN1C(=O)[C@H](CCC(=O)O)NC(=O)[C@@H]1CCCN1C(=O)[C@@H]1CCCN1C(=O)[C@H](CCC(=O)O)NC(=O)[C@@H]1CCCN1C(=O)[C@@H](CCC(=O)O)NC(=O)[C@H](CCC(N)=O)NC(=O)[C@@H]1CCCN1)C(=O)N[C@@H](CC(=O)O)C(N)=O [Rpn2 peptide, reference compound] (H-PQ[dE]PEPPEPF[dE]YID-NH2)
effect of soluble Rpn2 peptide competitor on binding of GST-Rpn13 PRU [1]: strongly suppressed binding
affinity for Rpn13 (Rpn13): nanomolar affinity

NC(=O)[C@H]1CSCc2cccc(c2)C(=O)N(Cc2cccnc2)Cc2nc(cs2)C(=O)N(Cc2ccc(F)c(F)c2)Cc2nc(co2)C(=O)N1 [Compound 1]
Kd (SA [3]): ~0.6 µM
tighter binding to SA than compound 2 (SA [4]): more than 1000 times
dose-dependent binding of SA-647 (MFI by flow cytometer) (SA-647): dose-dependent binding

NC(=O)CNC(=O)COCCOCCNC(=O)CNC(=O)c1cnc2[nH]ccc2c1 [A85]
effect of soluble Rpn2 peptide competitor on binding of GST-Rpn13 PRU [1]: strongly suppressed binding
Kd (Rpn13 PRU; soluble compound, biotinylated Rpn13 PRU immobilized on SA chip, read-out: KD (SPR)): > 2000 µM
fluorescence intensity in GST-Rpn13 PRU screen [2]: above-background fluorescence
